Several values for one entry are separate records, joined by “and”; a condition that tells them apart may be missing. Equal values may be shown once. Read-outs that look alike come from different tables or passages of the source.
How the values were obtained:
[1] = target: T1, hOAT3 (Homo sapiens, UniProt Q8TCC7); experiment: In vitro uptake assay in hOAT3-HEK293 cells
T1 sequence (Q8TCC7 1-542): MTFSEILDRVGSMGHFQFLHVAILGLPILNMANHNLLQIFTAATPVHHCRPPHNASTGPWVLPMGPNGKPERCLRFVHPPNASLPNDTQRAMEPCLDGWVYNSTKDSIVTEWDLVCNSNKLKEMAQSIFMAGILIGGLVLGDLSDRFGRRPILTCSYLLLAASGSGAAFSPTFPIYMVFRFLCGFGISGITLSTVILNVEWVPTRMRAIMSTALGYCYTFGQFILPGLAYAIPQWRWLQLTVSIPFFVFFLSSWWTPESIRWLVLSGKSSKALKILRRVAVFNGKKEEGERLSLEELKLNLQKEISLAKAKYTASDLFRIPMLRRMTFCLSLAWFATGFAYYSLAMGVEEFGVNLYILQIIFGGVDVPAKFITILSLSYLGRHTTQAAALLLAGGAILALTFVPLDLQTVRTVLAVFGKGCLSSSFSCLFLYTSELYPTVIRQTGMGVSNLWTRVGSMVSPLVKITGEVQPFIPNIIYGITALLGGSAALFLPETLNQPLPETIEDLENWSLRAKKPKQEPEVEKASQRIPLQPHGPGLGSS
Protocol: The hOAT1-HEK293, hOAT3-HEK293 and mock cells were cultured in Dulbecco modified Eagle medium (DMEM) containing 10% fetal bovine serum (FBS) and 1% penicillin/streptomycin in an atmosphere of 5% CO2 air at 37 °C. The HEK293 cells were plated on 24-well plates at a density of 5 × 10^5 cells/well. […] Uptake assay was initiated by adding 1 mL of the transporter buffer containing Y101, M8, ETV or probe substrate. Following incubation with gentle shaking, the uptake was terminated at designated time by removing the transporter buffer and washing cells three times with 1 mL of ice-cold HBSS. Next, substrates of Y101, M8, ETV, PAH and ES in cell monolayer were released by lysing the cells with 0.3 mL of 0.1% Triton X-100 for 2 h and determined by liquid chromatography–tandem mass spectrometry (LC–MS/MS). In the time-course uptake assay, Y101 (2.0 µM) and M8 (10 µM) in the presence or absence of PRO (100 µM) were measured in hOAT1-HEK293, hOAT3-HEK293 and mock cells. The concentration-dependent uptake of M8 was determined in hOAT3-HEK293 cells, and incubation time (5 min) was optimized. The uptake of M8 (10 µM) with or without ETV was examined in hOAT3-HEK293 cells. The uptake of ETV (10 µM) with or without Y101 or M8 was also measured in hOAT1-HEK293 and hOAT3-HEK293 cells, respectively. Furthermore, PAH and ES at concentrations of 10 µM were used as positive control in hOAT1-HEK293 and hOAT3-HEK293 cells, respectively. Protein concentrations were measured by the bicinchoninic acid procedure (Solarbio, Beijing, China) using bovine serum albumin as the standard.
(§1) Biological samples were prepared as previously described. Aliquots (50 µL) of urine, plasma, kidney homogenates, or cell lysates were individually mixed with 150 µL methanol and 50 µL working solution of internal standard (acetaminophen or bestatin), followed by vortexing for 1 min and centrifuging at 13,800 g for 10 min. […] The resulting supernatant (1 µL) was subjected to LC-MS/MS for the assessment of Y101, M8, M9 and ETV, respectively. […] The concentrations of ETV, Y101, M8 and M9 were determined by an AB QTRAP 5500 LC–MS/MS System (Foster City, CA, USA) as previously described. Chromatographic separation was achieved on an Infinitylab Poroshell 120 EC-C18 (50 mm × 2.1 mm, 2.7 µm, Agilent Technology Inc., CA, USA) at 40 °C. The mobile phase consisted of formic acid-acetonitrile (0.05:100, v/v) and a mixture of 1 mmol-ammonium acetate-acetonitrile-formic acid (95:5:0.05, v/v/v) at a flow rate of 0.3 mL/min. […] Analyst1.5.2 software was used for data processing and analysis.

[2] = system: rat kidney slices; experiment: In vitro uptake assay in kidney slices; format: in vitro ADME; details: M8 5.0 µM; for inhibition of the uptake of M8 in kidney slices: PCG 0.2 and 0.5 mM, PRO 0.1 mM, PAH 0.2 and 0.5 mM, TEA 0.2 mM, 10 min, ETV 10 µM
Protocol: The renal cortex was cut into 300 µm slices with a ZQP-86 tissue slicer (Shanghai Zhisun Equipment Co., Ltd., Shanghai, China; surface area 0.15 cm^2). […] Next, the kidney slices were prepared as previously described. Two slices per well were placed into 37 °C buffer filled with oxygen for pre-incubation for 3 min and then gently moved into a 24-well cell culture plate containing 1 mL oxygenated buffer at 4 °C or 37 °C. The uptakes of ETV (10 µM), Y101 (2.0 µM), M8 (5.0 µM) and M9 (1.0 µM) were measured at 5, 10, 15 and 30 min after the treatment, respectively. […] Following incubation at the designated time, kidney slices were collected, rinsed with ice-cold buffer three times, and dried on filter paper. After weighing and homogenization (IKA-T 10 homogenizer; IKA, Staufen, Germany), the concentrations of Y101, M8, M9 and ETV of kidney slice homogenates were determined as in the description below.
as §1

[3] = Pharmacokinetic study in rats, intravenous Y101 with or without PRO; format: in vivo, Sprague–Dawley (SD) rats; details: for Tmax / half-life / AUC(0-inf) / AUC(0-t) / Cmax: male, Sprague-Dawley, rat, plasma, iv, 25 mg/kg, n = 3
Protocol: The effect of PRO on the pharmacokinetics of Y101 was studied in rats. Male rats surgically prepared with indwelling jugular cannula were randomly divided into two groups (n = 3): (1) Y101 alone (25 mg/kg) as a control and (2) Y101 + PRO (25 mg/kg for Y101 and 100 mg/kg for PRO) as an experimental group. The intravenous dose of Y101 was prepared as previously described. Both Y101 and PRO were injected by caudal vein to rats at volume of 5 mL/kg.
(§2) Following administration, serial blood samples were collected through jugular vein pre-dose (0 h) and post-dose at 0.033, 0.083, 0.25, 0.5, 1, 1.5, 2, 3, 4, 6, 9, 12, 24 and 30 h in heparinized Eppendorf tubes. The resulting samples were centrifuged at 13,800× g at 4 °C for 5 min to obtain plasma. All plasma samples were stored at −70 °C until analysis.
(§3) Biological samples were prepared as previously described.
(§4) Non-compartmental analysis with Phenix WinNonlin (version 8.1; Pharsight, Certara Corp, Princeton, NJ) was used to calculate the main pharmacokinetic parameters of ETV, Y101, M8 and M9 for individual rats. The observed values were reported for maximum concentration (Cmax) and time to reach maximum concentration (Tmax), while the area under the plasma concentration–time curve (AUC) was calculated via the default trapezoidal-up, log-trapezoidal-down approach.

[4] = Renal excretion study in rats (cumulative urinary excretion, renal clearance); format: in vivo, Sprague–Dawley (SD) rats; details: for CL renal: Sprague-Dawley, rat, urine, iv, read-out: CLR (renal clearance) (converted)
Protocol: To investigate the effects of PRO on the renal excretion of Y101 and its metabolites, rats received an intravenous dose of Y101 (25 mg/kg) or Y101 + PRO (25 mg/kg for Y101 and 100 mg/kg for PRO) via the caudal vein. In order to verify the DDI between Y101 and ETV in renal excretion, rats received an intravenous dose of Y101 (25 mg/kg) and/or ETV (0.06 mg/kg) by caudal vein.
[…] Subsequently, urine samples were stored at −70 °C until analysis. The cumulative urinary excretion and renal clearance (CLR) were calculated as previously described.
as §3

[5] = Pharmacokinetic DDI study in rats, oral Y101 and/or ETV; format: in vivo, Sprague–Dawley (SD) rats; details: Sprague-Dawley, rat, plasma, n = 4
Protocol: (§5) Additionally, DDI between Y101 and ETV was investigated by monitoring time-course plasma Y101 in rats with surgery as described above. Animals were randomly placed into three groups (n = 4): (1) Y101 alone (25 mg/kg for intravenous treatment and 60 mg/kg for oral administration); (2) ETV (0.06 mg/kg); and (3) Y101 (25 mg/kg for intravenous treatment and 60 mg/kg for oral administration) + ETV (0.06 mg/kg). ETV was dissolved in saline at concentration of 12 µg/mL. Rats received an oral or intravenous dose of Y101 and/or ETV at volume of 5 mL/kg. The doses used in in vivo pharmacokinetic studies were selected in accordance with therapeutic doses of Y101 and ETV commonly used clinically and in previous studies.
as §2, §3, §4

[6] = Pharmacokinetic DDI study in rats, intravenous Y101 and/or ETV; format: in vivo, Sprague–Dawley (SD) rats; details: Sprague-Dawley, rat, plasma, n = 4
Protocol: as §5, §2, §3, §4

[7] = i.v. Y101 25 mg/kg + PRO 100 mg/kg vs Y101 alone
[8] = i.v. Y101 25 mg/kg + PRO 100 mg/kg
[9] = i.v. Y101 25 mg/kg + ETV 0.06 mg/kg
[10] = oral Y101 60 mg/kg + ETV 0.06 mg/kg

CCCN(CCC)S(=O)(=O)c1ccc(C(=O)O)cc1 [PRO, probenecid, reference compound]
inhibition of the uptake of ES in hOAT3-HEK293 cells ([1]; ES 10 µM, PRO 100 µM, 10 min): inhibited in the presence of PRO | inhibition of the uptake of M8 in hOAT3-HEK293 cells ([1]; M8 10 µM, PRO 100 µM, ETV 10 µM): inhibited by the presence of PRO | inhibition of the uptake of M8 in kidney slices [2]: inhibited significantly

C[N+](C)([O-])CCOc1ccc(CC(NC(=O)c2ccccc2)C(=O)O)cc1 (stereo not drawn) [M9]
elevation in AUC value on co-administration of PRO [3, 7]: 56% | increase in Cmax value on co-administration of PRO [3, 7]: 1.4 fold | Tmax [3, 8]: 1.33 h | half-life [3, 8]: 79.2 min | AUC(0-inf) [3, 8]: 536 ng·h/mL | AUC(0-t) [3, 8]: 527 ng·h/mL | Cmax [3, 8]: 219 ng/mL | AUC(0-inf) ([3]; i.v. Y101 25 mg/kg alone): 343 ng·h/mL | AUC(0-t) ([3]; i.v. Y101 25 mg/kg alone): 335 ng·h/mL | Cmax ([3]; i.v. Y101 25 mg/kg alone): 156 ng/mL | Tmax ([3]; i.v. Y101 25 mg/kg alone): 1.17 h | half-life ([3]; i.v. Y101 25 mg/kg alone): 60.6 min | CL renal ([4]; 25 mg/kg, i.v. Y101 25 mg/kg + PRO 100 mg/kg): 2 mL/min/kg | CL renal ([4]; 25 mg/kg, i.v. Y101 25 mg/kg alone (Table 1, control of PRO study)): 2.08 mL/min/kg | CL renal ([4]; 25 mg/kg, i.v. Y101 25 mg/kg alone (Table 2, control of ETV study)): 2.47 mL/min/kg | CL renal [4, 9]: 2.67 mL/min/kg | cumulative excretion in the urine ([4]; i.v. Y101 25 mg/kg + ETV 0.06 mg/kg, at 30 h post-dose): 1.50 ± 0.232 % of the dose | cumulative urinary excretion ([4]; i.v. Y101 25 mg/kg + PRO 100 mg/kg, 0 to 48 h): 1.36 ± 0.106% | cumulative urinary excretion ([4]; i.v. Y101 25 mg/kg alone, at 48 h post-dose): 1.42 ± 0.04 % of the dose and 1.42 % of the dose | AUC(0-inf) [5, 10]: 657 ng·h/mL | AUC(0-t) [5, 10]: 645 ng·h/mL | Cmax [5, 10]: 127 ng/mL | AUC(0-inf) ([5]; oral Y101 60 mg/kg alone): 645 ng·h/mL | AUC(0-t) ([5]; oral Y101 60 mg/kg alone): 641 ng·h/mL | Cmax ([5]; oral Y101 60 mg/kg alone): 144 ng/mL | Tmax [5, 10]: 2.5 h | half-life [5, 10]: 87.6 min | Tmax ([5]; oral Y101 60 mg/kg alone): 3 h | half-life ([5]; oral Y101 60 mg/kg alone): 69.6 min | AUC(0-inf) [6, 9]: 471 ng·h/mL | AUC(0-t) [6, 9]: 464 ng·h/mL | Cmax [6, 9]: 171 ng/mL | AUC(0-inf) ([6]; i.v. Y101 25 mg/kg alone): 553 ng·h/mL | AUC(0-t) ([6]; i.v. Y101 25 mg/kg alone): 547 ng·h/mL | Cmax ([6]; i.v. Y101 25 mg/kg alone): 134 ng/mL | Tmax [6, 9]: 1.25 h | half-life [6, 9]: 108 min | Tmax ([6]; i.v. Y101 25 mg/kg alone): 1.13 h | half-life ([6]; i.v. Y101 25 mg/kg alone): 68.4 min | time and temperature dependence of uptake in kidney slices ([2]; 37 °C vs 4 °C, Y101 2.0 µM, M9 1.0 µM, 5 to 30 min): did not show significant time or temperature dependence

CC1(C)S[C@@H]2[C@H](NC(=O)Cc3ccccc3)C(=O)N2[C@H]1C(=O)O [PCG, benzylpenicillin]
inhibition of the uptake of M8 in kidney slices [2]: inhibited significantly

C[C@]12CC[C@@H]3c4ccc(OS(=O)(=O)[O-])cc4CC[C@H]3[C@@H]1CCC2=O.[Na+] [ES, Estrone 3-sulfate sodium salt, reference compound]
substrate of hOAT3 (uptake in hOAT3-HEK293 vs mock-HEK293 cells) ([1]; Y101 2.0 µM, M8 10 µM, ES 10 µM): selectively accumulated

Source: publication PMC9967645, “OAT3 Participates in Drug–Drug Interaction between Bentysrepinine and Entecavir through Interactions with M8—A Metabolite of Bentysrepinine—In Rats and Humans In Vitro” (Molecules, 2023)
